# In US20200054646A1, “USE OF PHENOTHIAZINE DERIVATIVE IN THE TREATMENT OF INFECTIOUS PURPURA OR PURPURA FULMINANS” (priority 2016, published 2020):
# What was measured:
# [1] = tested on: N. meningitidis Nm2C4.3 strain; test: Bactericidal activity on N. meningitidis in liquid culture (colony forming unit count); type: cell-based, Neisseria meningitidis; settings: for viable count of the culture that contained 10^7 CFU/ml: 15 min treatment
# Protocol: N. meningitidis Nm2C4.3 strain grown in liquid culture at 10^7 CFU/ml were treated with increasing concentrations of Trifluoperazine (10 to 50 μM) or Gentamicin (150 μg/ml) for 15 minutes (A) Bactericidal activity was determined by the count of colony forming units on GCB agar plates 24 h after treatment. (B) Images of the non-treated bacteria or bacteria treated with 30 μM TFP grown for 24 h on GCB agar plates.
# Nm2C4.3, a piliated capsulated Opa^−Opc^− variant of the serogroup C meningococcal clinical isolate 8013, was cultured in Dulbecco's Modified Eagle Medium (DMEM) 4.5 g/L-Glutamax media 0,1% BSA during two hours at 37° C. 5% C02. A bacterial suspension at optical density (OD) 0.1 was then distributed in 24-well plate (1 ml/well). After 1 hour of incubation, Trifluoperazine (Sigma #T8516, stock solution in PBS) was added to obtain final concentrations of 10, 20, 30, 40, and 50 μM. Gentamicin (150 μg/ml in DMEM) and PBS alone were used as controls. After 15 min treatment, serial dilutions were performed in physiological water and 100 μl of each dilution were plated on Petri dishes containing GCB solid media (BD, Difco GC media) containing supplements, incubated overnight and the colony forming units were counted.
# [2] = tested on: HDMEC infected with Nm2C4.3; test: Cytoskeleton remodelling and endothelial cell junction integrity of infected HDMEC (Ezrin, Actin, VE-cadherin immunostaining); type: cell-based, human
# Protocol: (A) Experimental procedure: HDMEC were infected for 2 h with Nm2C4.3, treated for 1 h with gentamicin (150 μg/ml) and then 15 min with Trifluoperazine (50 μM) (or solvent alone as a control) and left in medium for 1 h before fixation. (B) Upper panels: Representative fluorescence microscopy showing the effect on the endothelial cell cytoskeleton remodelling analysed by immunostaining of Ezrin and Actin. Lower panels: Effect on the endothelial cell junction integrity was analysed by immunostaining of Actin and VE-cadherin. (C) Quantification of the bacterial colonization (upper panel) Ezrin recruitment and cortical actin polymerization at sites of bacterial adhesion (lower panel) was performed using Image J software.
# HDMECs were grown in their specific culture medium (Promocell #C-12210) and confluent monolayers were infected with 2C4.3. Briefly, bacteria were precultured in prewarmed cell culture medium for 1 h 30 min at 37° C. 5% CO2. The OD600 was adjusted to 0.1 and HDMECs were then overlaid with bacteria for 30 min (MOI of 100). Unbound bacteria were removed by three washes in cell culture media and infection was allowed to proceed for 1 h at 37° C. 5% CO2. Gentamicin was added at 150 μg/ml for 1 h, then after three washes in cell culture media, Trifluoperazine was applied where mentioned at 50 μM for 20 min. After three washes in cell culture media, cells were allowed to recover for 1 h in cell culture media. At the indicated time, cells were fixed with 4% Paraformaldehyde for 10 min. Immunolabelling was then performed as above described in example 4, using DAPI, Alexa Fluor 633 Phalloidin, Polyclonal antisera raised against Ezrin, obtained from Pr P. Mangeat (CRBM, Montpellier, France) and anti-human VE-Cadherin (eBioscience #BMS158). When indicated, HBMECs were grown on Thermanox coverslips coated with gelatin 2% for 2 days to reach confluency. Cells were then infected as above described in the presence or in the absence of 5 μM Trifluoperazine for 2 h. Cells were washed and fixed in 4% paraformaldehyde and immunolabelling was performed with a polyclonal antisera raised anti-Nm2C4.3 strain, anti-human PECAM-1 mouse monoclonal, clone HEC7 (ABCAM ab119339) or rabbit polyclonal 177 raised against PECAM-1, obtained from WA Muller (Northwestern University, Chicago, Ill., US), anti-[…] catenin (05-482, UBI), polyclonal antisera raised against Ezrin, Alexa Fluor 633 Phalloidin. Secondary antibodies were from Jackson ImmunoResearch Laboratories. Image acquisitions were performed on a Leica DM16000 with Yokogawa CSU-X1M1 system and CoolSnap HQ2 (Photometrics). Quantifications were done using ImageJ software (NIH).
# [3] = tested on: Enteropathogenic Escherichia Coli (EPEC escN mutant, GFP) microcolonies on HBMEC; test: Dispersion of EPEC microcolonies at the surface of human endothelial cells; type: cell-based; settings: 10 to 50 μM, 30 min, dose-dependent
# Protocol: Human bone marrow microvascular endothelial cells (HBMEC) were infected with a GFP-expressing mutant Enteropathogenic Escherichia Coli, which lacks the ATPase escN (EPEC […]escN-GFP) for 2 h, then treated with Trifluoperazine (10-50 μM) for 30 minutes, before fixation and immunofluorescence analysis using Alexa Fluor 633 Phalloidin. (A) Representative fluorescence microscopy showing bacterial colony (white dots) formed at the surface of the endothelial cells. (B) Quantification of the bacterial colonization was performed using Image J software.
# HBMEC were grown on Thermanox coverslips coated with gelatin 2% for 2 days to reach confluency. Cells were then infected for 1 h with a GFP-expressing mutant Enteropathogenic Escherichia Coli (EPEC), which lacks the ATPase escN. This strain is unable to translocate effector proteins and is more prone to form pilus-dependent microcolony at the host cell surface (Jensen et al., 2015). Cells were then washed three times with medium to remove non-adherent bacteria and infection was pursued for 1 extra hour, to allow bacterial growth at the endothelial cell surface to form microcolonies. Trifluoperazine was then added to obtain final concentrations of 10, 20, 30 and 50 μM. After incubation for 30 minutes, cells were washed and fixed in 4% Paraformaldehyde for 10 min, washed three times with PBS. […] Quantification was done with ImageJ software (NIH). […]
# [4] = Gentamicin 150 μg/ml for 1 h alone
# [5] = Trifluoperazine 50 μM in combination with gentamicin 150 μg/ml
SMILES,"bactericidal effect (in words) ([1]; Gentamicin 150 μg/ml, 15 min)","Ezrin recruitment, cortical actin polymerization, VE-cadherin distribution under residual colonies [2, 4]","number of colonies present at the cell surface [2, 4]",viable count of the culture that contained 10^7 CFU/ml ([1]; Trifluoperazine 50 μM),viable count of the culture that contained 10^7 CFU/ml ([1]; Trifluoperazine 10 to 30 μM),dispersion of EPEC microcolonies [3],"Ezrin recruitment under residual bacteria [2, 5]","dispersion of bacterial colonies at the endothelial cell surface [2, 5]","endothelial cell junction integrity (VE-cadherin staining, gaps between cells) [2, 5]"
"CN[C@@H]1[C@@H](O)C(O[C@@H]2[C@@H](O)[C@H](O[C@H]3O[C@H]([C@@H](C)NC)CC[C@H]3N)[C@@H](N)C[C@H]2N)OC[C@]1(C)O (stereo partly drawn) [Gentamicin, (3R,4R,5R)-2-{[(1S,2S,3R,4S,6R)-4,6-diamino-3-{[(2R,3R,6S)-3-amino-6-[(1R)-1-(methylamino)ethyl]oxan-2-yl]oxy}-2-hydroxycyclohexyl]oxy}-5-methyl-4-(methylamino)oxane-3,5-diol]",killed all bacteria,still induced Ezrin recruitment,reduced the number of colonies,,,,,,
CN1CCN(CCCN2c3ccccc3Sc3ccc(C(F)(F)F)cc32)CC1 [Trifluoperazine],,,,10^3 CFU/ml,10^6 CFU/ml,induced the dispersion,Few Ezrin recruitment,induced the dispersion of most of the bacterial colonies,preserved endothelial cell junction integrity
